Test results: article PMC7004140, “In vitro hepatotoxicity of Petasites hybridus extract (Ze 339) depends on the concentration, the cytochrome activity of the cell system, and the species used” (Phytotherapy Research, 2019)

What was measured:
H-4-II-E cells = assay: WST-1 metabolic activity (cytotoxicity) in H-4-II-E cells; assay type: cell-based, rat (Rattus norvegicus); conditions: Rattus norvegicus, H4IIE, single constituents, 4 hr
Protocol: (§1) HepG2 and H‐4‐II‐E cells were differentiated for 24 hr. HepaRG cells were directly seeded in precoated 96‐well microtiter plates and were incubated in William's medium with general purpose supplements according to manufacturer's manual until adherence. All cells were treated with Ze 339 (up to 100 μg/ml) or petasin, isopetasin, neopetasin, petasol, isopetasol, petasin mixture, fatty acid mixture, and reconstituted extracts (up to 250 μM) for 4 hr.
(§2) In the three cell lines, cytotoxicity was defined as a decrease in metabolic activity of ≥20% in the WST‐1 assay. At the end of the experiment, 10 μl WST‐1 reagent was added to each well. Plates were then incubated for 2 hr to allow for the reduction of WST‐1 reagent. Absorbance was measured using a microplate absorbance reader (Infinite M 200, Tecan Trading Ltd., Switzerland) at 450 nm, reference wavelength of 620 nm. Due to some matrix effect, the lowest concentration (0.02 μg/ml for Ze 339 and 3.9 μM for single constituents and mixtures) of each substance tested was defined as 100% metabolic activity. Results were expressed as percentage of the control metabolic activity, and data were presented as mean values ± SEM (n = 3–6).
(§3) Concentration‐response analysis was done using the sigmoidal Hill equation: E(t) = E0 − Emax × C(t)^N/(IC50 ^N + C(t)^N), where E is the effect at time t, E0 the effect at baseline (time = 0), IC50 the concentration yielding 50% of the maximal effect (Emax), and N denotes the sigmoidicity coefficient (Origin 2017 Software). For statistical analysis, analysis of variance with Dunnett's multicomparison test was used to correct for multiplicity of testing (IBM SPSS Statistics software, version 25, IBM Corp., USA). The level of significance was ^* p < .05, ^** p < .01 and ^*** p < .001; NS = no significance.

HepG2 cells = assay: WST-1 metabolic activity (cytotoxicity) in HepG2 cells; assay type: cell-based, human; conditions: HepG2, 250 μM (highest concentration), 4 hr
Protocol: as §1, §2, §3

CYP2D2 (rats) = target: T1, CYP2D2 (rats) (Rattus norvegicus, UniProt P10634); assay: Metabolism by isolated rat CYP2D2; assay type: in vitro ADME; conditions: petasins 20 μM, 60 min
T1 construct: purchased BD Gentest (Switzerland); host or cells: baculovirus expression system
T1 sequence (P10634 1-500): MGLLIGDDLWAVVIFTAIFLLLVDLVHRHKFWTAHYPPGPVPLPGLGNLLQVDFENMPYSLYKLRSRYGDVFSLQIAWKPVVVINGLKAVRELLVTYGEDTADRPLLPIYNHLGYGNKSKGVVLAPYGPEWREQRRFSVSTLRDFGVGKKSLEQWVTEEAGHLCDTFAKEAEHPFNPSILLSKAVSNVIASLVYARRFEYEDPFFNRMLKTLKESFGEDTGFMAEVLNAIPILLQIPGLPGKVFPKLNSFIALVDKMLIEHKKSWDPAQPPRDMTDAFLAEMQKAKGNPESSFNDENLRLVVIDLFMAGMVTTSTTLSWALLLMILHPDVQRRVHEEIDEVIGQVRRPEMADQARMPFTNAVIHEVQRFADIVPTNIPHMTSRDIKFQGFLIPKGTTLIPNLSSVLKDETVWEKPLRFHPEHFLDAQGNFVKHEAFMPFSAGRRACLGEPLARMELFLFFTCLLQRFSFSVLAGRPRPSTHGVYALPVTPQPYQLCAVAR
From the text: (§4) The metabolism of petasin, isopetasin, and neopetasin was investigated using three different S9 fractions originating from three different species (isolated from rat, dog, and human liver homogenates containing cytochrome P450 isoforms) and isolated cytochromes of two different species (human and rat; rat analogues of the respective human cytochromes were used). For the expression of the different cytochromes, a baculovirus expression system was used according to supplier's manual. The S9 fractions or respectively single P450 cytochromes were used to mimic the liver metabolism by in vitro incubation.
(§5) The assay was carried out in triplicate in 1.5 ml glass vials with a final concentration of 20 μM of petasin, isopetasin, and neopetasin. The incubation was performed in a 37°C warm water bath. S9 fractions were thawed slowly on ice. Four different approaches were pursued by testing: (a) petasin, neopetasin, and isopetasin before (0 min) and after 60 min incubations with S9 fraction; (b) petasin, neopetasin, and isopetasin without S9 fraction after 60 min incubation; (c) vehicle as negative controls; and (d) cofactors of S9 fraction after 60‐min incubation.
(§6) A mixture of NADPH regeneration systems A (20‐fold) and B (100‐fold), phosphate buffer, and H2O was added, preincubated at 37°C, and shaken gently for 5 min. Afterwards, the recommended amount between 10 and 40 pmol/ml of enzyme or enzyme mixture was added according to manufacturer's instruction and incubated for further 60 min at 37°C and gently shaken. Afterwards, the reactions were stopped by addition of acetonitrile (400 μl). For the control sample, acetonitrile was added at 0 min incubation. The samples were centrifuged for 3 min at 10,000 × g. The supernatant was transferred to high‐performance liquid chromatography vials and analyzed by ultra‐performance liquid chromatography mass spectrometry (UPLC/MS). The UPLC analysis was performed with an UPLC Acquity H Class from Waters (Waters Corporation, Switzerland) including a quaternary high‐pressure gradient pump, an automatic sample injector, and a column thermostat. […]

HepaRG cells = assay: WST-1 metabolic activity (cytotoxicity) in HepaRG cells; assay type: cell-based, human; conditions: 250 μM, 4 hr
Protocol: as §1, §2, §3

[1] = system: S9 fractions from rat, dog and human; assay: Metabolism by liver S9 fractions from different species; assay type: in vitro ADME, rat (Sprague Dawley), dog (beagle); conditions: 20 μM, 60 min incubation
From the text: as §4, §5, §6

SMILES: C/C=C(/C)C(=O)O[C@@H]1CCC2=CC(=O)C(=C(C)C)C[C@]2(C)[C@H]1C [isopetasin]
- EC50 (H-4-II-E cells): 110 µM
- metabolic activity compared with the reference concentration (3.9 μM) (HepG2 cells): 65.6%
- extent of metabolism by CYP2D2 (rat) (CYP2D2 (rats)): 7%
- metabolic activity (HepaRG cells): 73%
- rank order of extent of metabolism by S9 fractions of different species [1]: rat>dog>human

SMILES: C=C(C)[C@H]1C[C@@]2(C)C(=CC1=O)CC[C@@H](OC(=O)/C(C)=C\C)[C@@H]2C [neopetasin]
- EC50 (H-4-II-E cells): 15.8 µM
- metabolic activity compared with the reference concentration (3.9 μM) (HepG2 cells): 66.8%
- extent of metabolism by CYP2D2 (rat) (CYP2D2 (rats)): 36%
- metabolic activity (HepaRG cells): 28.9%
- rank order of extent of metabolism by S9 fractions of different species [1]: rat>dog>human

SMILES: C=C(C)[C@@H]1C[C@@]2(C)C(=CC1=O)CC[C@@H](OC(=O)/C(C)=C\C)[C@@H]2C [petasin]
- EC50 (H-4-II-E cells): 132 µM
- metabolic activity compared with the reference concentration (3.9 μM) (HepG2 cells): 60.9%
- extent of metabolism by CYP2D2 (rat) (CYP2D2 (rats)): 37%
- metabolic activity (HepaRG cells): 37.7%
- rank order of extent of metabolism by S9 fractions of different species [1]: rat>dog>human
